Our source for the IC50 and DC50 values is US20230167118A1, “DEGRADATION OF BRUTON'S TYROSINE KINASE (BTK) BY CONJUGATION OF BTK INIDBITORS WITH E3 LIGASE LIGAND AND METHODS OF USE” (BEIGENE, LTD., priority 2020, published 2023).

pIC50: −log10 of the molar value. Where a name gives a salt, the structure may show the parent alone.

In one assay the test system is HEK-293 cells. Put plainly: HEK-293 Cytotoxicity Assay (CellTiter-Glo). Format: cell-based. As to conditions: Homo sapiens, HEK293, 72 h incubation, CellTiter-Glo luminescence. In short, it runs like this:
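Four-parameter fit of % inhibition gives IC50, from CellTiter-Glo luminescent viability read-out. Cells exposed for 72 h to an 8-point, 4-fold series at 0.2% DMSO.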
(In general: Cellular ATP, detected with luciferase, serves as a proxy for viable cell number.)

The next assay addresses T1, BTK (Homo sapiens, UniProt Q06187).
T1 construct: High control=Cell group with added DMSO and without compound, indicating microplate readings without BTK degradation; endogenous in cells; host or cells: TMD-8 cells
In words: Cell Degradation: BTK degradation in TMD-8 cells, HTRF assay. Format: cell-based. The settings on record: 6 h treatment, IC50 (DC50) of BTK degradation. In short, it runs like this: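 BTK levels read by HTRF (665 vs 620 nm) in lysates of TMD-8 cells after 6 h compound exposure (eight doses, 6-fold steps, 0.2% DMSO). Percent degradation relative to controls; four-parameter curve fitting gave DC50, with Dmax the top degradation.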
(Time-resolved FRET reads energy transfer from a long-lived donor to a nearby acceptor.)

T1 sequence (Q06187 whole entry): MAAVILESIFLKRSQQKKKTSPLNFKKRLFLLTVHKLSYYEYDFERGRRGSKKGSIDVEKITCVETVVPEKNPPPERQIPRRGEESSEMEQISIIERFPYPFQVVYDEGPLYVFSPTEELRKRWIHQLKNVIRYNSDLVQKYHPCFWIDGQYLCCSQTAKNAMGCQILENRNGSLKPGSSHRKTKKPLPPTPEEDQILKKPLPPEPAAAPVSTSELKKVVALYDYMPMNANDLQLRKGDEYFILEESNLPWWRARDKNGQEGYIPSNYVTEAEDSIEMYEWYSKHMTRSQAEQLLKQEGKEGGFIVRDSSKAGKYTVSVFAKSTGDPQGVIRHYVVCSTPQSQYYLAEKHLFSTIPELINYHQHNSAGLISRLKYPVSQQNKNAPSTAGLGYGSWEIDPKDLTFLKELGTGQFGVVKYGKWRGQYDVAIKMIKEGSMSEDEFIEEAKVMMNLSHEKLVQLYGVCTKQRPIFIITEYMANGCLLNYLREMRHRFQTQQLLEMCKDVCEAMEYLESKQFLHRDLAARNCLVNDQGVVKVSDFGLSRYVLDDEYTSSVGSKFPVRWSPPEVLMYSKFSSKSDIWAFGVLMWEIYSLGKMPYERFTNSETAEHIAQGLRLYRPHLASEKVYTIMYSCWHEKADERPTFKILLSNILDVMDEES

A word on the pIC50: it is the negative decadic logarithm of the IC50, by convention in mol/L. Higher therefore signals a low IC50. Usually DC50 stands for the midpoint of the concentration-degradation curve. Low values mean degradation at low concentration, high ones degradation only at high concentration. Compound `Cc1cc(-c2ncnc3[nH]c(-c4ccc(N5CCN(CC6CCN(c7ccc(N8CCC(=O)NC8=O)c(C)c7)CC6)CC5)cn4)cc23)ccc1[C@@H](C)NC(=O)c1noc(C2(C)CC2)n1` [Example 125, (R)-N-(1-(4-(6-(5-(4-((1-(4-(2,4-dioxotetrahydropyrimidin-1(2H)-yl)-3-methylphenyl)piperidin-4-yl)methyl)piperazin-1-yl)pyridin-2-yl)-7H-pyrrolo[2,3-d]pyrimidin-4-yl)-2-methylphenyl)ethyl)-5-(1-methylcyclopropyl)-1,2,4-oxadiazole-3-carboxamide] gave a pIC50 with HEK-293 cells of under 5.00. For the same compound, at BTK, the 50% degradation concentration (DC50) was determined as 0.74 nM.

`Cc1cc(-c2ncnc3[nH]c(-c4ccc(N5CCN(CC6CCN(c7ccc(C8CCC(=O)NC8=O)cc7)C6)CC5)cc4)cc23)ccc1[C@@H](C)NC(=O)c1nc(C(C)(C)C)no1` (stereo partly drawn) [Example 143, 3-(tert-butyl)-N-((1R)-1-(4-(6-(4-(4-((1-(4-(2,6-dioxopiperidin-3-yl)phenyl)pyrrolidin-3-yl)methyl)piperazin-1-yl)phenyl)-7H-pyrrolo[2,3-d]pyrimidin-4-yl)-2-methylphenyl)ethyl)-1,2,4-oxadiazole-5-carboxamide]: the negative logarithm of the IC50 (pIC50) with HEK-293 cells was under 5.00. At BTK, it took 8.42 nM to reach half-maximal degradation (DC50).

Turning to `Cc1cc(-c2ncnc3[nH]c(-c4ccc(N5CCN([C@H]6C[C@@H](c7ccc(N[C@@H]8CCC(=O)NC8=O)cc7)C6)CC5)nc4)cc23)ccc1[C@@H](C)NC(=O)c1nc(C(C)(C)C)no1` [Example 189, 3-(tert-butyl)-N-((R)-1-(4-(6-(6-(4-((1S,3s)-3-(4-(((R)-2,6-dioxopiperidin-3-yl)amino)phenyl)cyclobutyl)piperazin-1-yl)pyridin-3-yl)-7H-pyrrolo[2,3-d]pyrimidin-4-yl)-2-methylphenyl)ethyl)-1,2,4-oxadiazole-5-carboxamide], in the assay with HEK-293 cells, the pIC50 was under 5.00. Further, the DC50 on BTK is over 2000 nM.

As to `Cc1cc(-c2ncnc3[nH]c(-c4ccc(N5CCN(CC6CCN(c7ccc(N8CCC(=O)NC8=O)c(C)c7)CC6)CC5)cn4)cc23)ccc1[C@@H](C)NC(=O)c1noc(C(C)(C)C)n1` [Example 129, (R)-5-(tert-butyl)-N-(1-(4-(6-(5-(4-((1-(4-(2,4-dioxotetrahydropyrimidin-1(2H)-yl)-3-methylphenyl)piperidin-4-yl)methyl)piperazin-1-yl)pyridin-2-yl)-7H-pyrrolo[2,3-d]pyrimidin-4-yl)-2-methylphenyl)ethyl)-1,2,4-oxadiazole-3-carboxamide], the negative logarithm of the IC50 (pIC50) in the assay with HEK-293 cells is under 5.00. The compound also showed a 50% degradation concentration (DC50) on BTK of 0.33 nM.

`Cc1cc(-c2ncnc3[nH]c(-c4ccc(C5CCN(CC6CCN(c7ccc(N8CCC(=O)NC8=O)cc7F)CC6)CC5)cc4)cc23)ccc1CNC(=O)c1nc(C(C)(C)C)no1` [Example 39, 3-(tert-butyl)-N-(4-(6-(4-(1-((1-(4-(2,4-dioxotetrahydropyrimidin-1(2H)-yl)-2-fluorophenyl)piperidin-4-yl)methyl)piperidin-4-yl)phenyl)-7H-pyrrolo[2,3-d]pyrimidin-4-yl)-2-methylbenzyl)-1,2,4-oxadiazole-5-carboxamide Formate] gave a pIC50 in the assay with HEK-293 cells of under 5.00. In addition, at BTK, half-maximal degradation (DC50) was put at 1.1 nM.

Regarding `Cc1cc(-c2ncnc3[nH]c(-c4c(C)nn(C5CCN(CC6CCN(c7ccc(N8CCC(=O)NC8=O)cc7)CC6)C5)c4C)cc23)ccc1[C@@H](C)NC(=O)c1nc(C(C)(C)C)no1` (stereo partly drawn) [Example 163, 3-(tert-butyl)-N-((1R)-1-(4-(6-(1-(1-((1-(4-(2,4-dioxotetrahydropyrimidin-1(2H)-yl)phenyl)piperidin-4-yl)methyl)pyrrolidin-3-yl)-3,5-dimethyl-1H-pyrazol-4-yl)-7H-pyrrolo[2,3-d]pyrimidin-4-yl)-2-methylphenyl)ethyl)-1,2,4-oxadiazole-5-carboxamide], the pIC50 in the assay on HEK-293 cells was under 5.00. Moreover, the DC50 on BTK was 1.32 nM.

As for `Cc1cc(-c2ncnc3[nH]c(-c4ccc(N5CCN(CC6CCN(c7ccc(N8CCC(=O)NC8=O)cc7)CC6)CC5)cc4)cc23)ccc1[C@@H](C)NC(=O)c1nc(C(C)(C)C)no1` [Example 20, (R)-3-(tert-butyl)-N-(1-(4-(6-(4-(4-((1-(4-(2,4-dioxotetrahydropyrimidin-1(2H)-yl)phenyl)piperidin-4-yl)methyl)piperazin-1-yl)phenyl)-7H-pyrrolo[2,3-d]pyrimidin-4-yl)-2-methylphenyl)ethyl)-1,2,4-oxadiazole-5-carboxamide], the pIC50 in the assay on HEK-293 cells is under 5.00. This compound had a 50% degradation concentration (DC50) on BTK of 1.4 nM.

Regarding `Cc1cc(-c2ncnc3[nH]c(-c4ccc(N5CCN(CC6CCN(c7ccc(N8CCC(=O)NC8=O)cc7)CC6)CC5)cn4)cc23)ccc1[C@@H](C)NC(=O)c1noc(C(C)(C)C)n1` [Example 133, (R)-5-(tert-butyl)-N-(1-(4-(6-(5-(4-((1-(4-(2,4-dioxotetrahydropyrimidin-1(2H)-yl)phenyl)piperidin-4-yl)methyl)piperazin-1-yl)pyridin-2-yl)-7H-pyrrolo[2,3-d]pyrimidin-4-yl)-2-methylphenyl)ethyl)-1,2,4-oxadiazole-3-carboxamide], the negative logarithm of the IC50 (pIC50) in the assay on HEK-293 cells is under 5.00. The compound also gave a half-maximal degradation concentration (DC50) at BTK of 0.8 nM.

`Cc1cc(-c2ncnc3[nH]c(-c4ccc(N5CCN(CC6CCN(c7cc(F)ccc7N7CCC(=O)NC7=O)CC6)CC5)cc4)cc23)ccc1[C@@H](C)NC(=O)c1nc(C(C)(C)C)no1` [Example 43, (R)-3-(tert-butyl)-N-(1-(4-(6-(4-(4-((1-(2-(2,4-dioxotetrahydropyrimidin-1(2H)-yl)-5-fluorophenyl)piperidin-4-yl)methyl)piperazin-1-yl)phenyl)-7H-pyrrolo[2,3-d]pyrimidin-4-yl)-2-methylphenyl)ethyl)-1,2,4-oxadiazole-5-carboxamide] gave a negative logarithm of the IC50 (pIC50) in the assay with HEK-293 cells of under 5.00. Also, the DC50 at BTK was over 2000 nM.

`Cc1cc(CNC(=O)c2ccc(C(C)(C)O)cc2F)c(F)cc1-c1ncnc2[nH]c(-c3ccc(C4CCN(CC5CCN(c6ccc(N7CCC(=O)NC7=O)cc6)CC5)CC4)cc3)cc12` [Example 36, N-(4-(6-(4-(1-((1-(4-(2,4-dioxotetrahydropyrimidin-1(2H)-yl)phenyl)piperidin-4-yl)methyl)piperidin-4-yl)phenyl)-7H-pyrrolo[2,3-d]pyrimidin-4-yl)-2-fluoro-5-methylbenzyl)-2-fluoro-4-(2-hydroxypropan-2-yl)benzamide] had a pIC50 in the assay with HEK-293 cells of under 5.00. The compound also showed a DC50 on BTK of 1.5 nM.

For the compound `Cc1cc(-c2ncnc3[nH]c(-c4ccc(N5CCN(CC6CCN(c7ccc(N8CCC(=O)NC8=O)c(C)c7)CC6)CC5)nc4)cc23)ccc1[C@@H](C)NC(=O)c1nc(C(C)(C)C)no1` [Example 58, (R)-3-(tert-butyl)-N-(1-(4-(6-(6-(4-((1-(4-(2,4-dioxotetrahydropyrimidin-1(2H)-yl)-3-methylphenyl)piperidin-4-yl)methyl)piperazin-1-yl)pyridin-3-yl)-7H-pyrrolo[2,3-d]pyrimidin-4-yl)-2-methylphenyl)ethyl)-1,2,4-oxadiazole-5-carboxamide], the pIC50 in the assay with HEK-293 cells was under 5.00. In addition, on BTK, the DC50 was determined as 1.5 nM.

As to `CC(C)(C)c1noc(C(=O)N[C@@H]2CCc3cc(-c4ncnc5[nH]c(-c6ccc(N7CCN(CC8CCN(c9ccc(N%10CCC(=O)NC%10=O)cc9)CC8)CC7)cn6)cc45)ccc32)n1` [Example 150, (R)-3-(tert-butyl)-N-(5-(6-(5-(4-((1-(4-(2,4-dioxotetrahydropyrimidin-1(2H)-yl)phenyl)piperidin-4-yl)methyl)piperazin-1-yl)pyridin-2-yl)-7H-pyrrolo[2,3-d]pyrimidin-4-yl)-2,3-dihydro-1H-inden-1-yl)-1,2,4-oxadiazole-5-carboxamide], the pIC50 with HEK-293 cells was under 5.00. This compound came in with a half-maximal degradation concentration (DC50) at BTK of 1.64 nM.

`Cc1cc(-c2ncnc3[nH]c(-c4ccc(N5CCN(CC6CCN(c7ccc(N8CCC(=O)NC8=O)cc7)CC6)CC5)cc4)cc23)ccc1CNC(=O)c1noc(C(C)(C)C(F)(F)F)n1` [Example 50, N-(4-(6-(4-(4-((1-(4-(2,4-dioxotetrahydropyrimidin-1(2H)-yl)phenyl)piperidin-4-yl)methyl)piperazin-1-yl)phenyl)-7H-pyrrolo[2,3-d]pyrimidin-4-yl)-2-methylbenzyl)-5-(1,1,1-trifluoro-2-methylpropan-2-yl)-1,2,4-oxadiazole-3-carboxamide] showed a pIC50 in the assay on HEK-293 cells of under 5.00. The compound further returned a half-maximal degradation concentration (DC50) at BTK of 1.1 nM.

`Cc1cc(-c2ncnc3[nH]c(-c4ccc(C5CN(CC6CCN(c7ccc(N8CCC(=O)NC8=O)cc7)CC6)C5)nc4)cc23)ccc1[C@@H](C)NC(=O)c1nc(C(C)(C)C)no1` [Example 179, (R)-3-(tert-butyl)-N-(1-(4-(6-(6-(1-((1-(4-(2,4-dioxotetrahydropyrimidin-1(2H)-yl)phenyl)piperidin-4-yl)methyl)azetidin-3-yl)pyridin-3-yl)-7H-pyrrolo[2,3-d]pyrimidin-4-yl)-2-methylphenyl)ethyl)-1,2,4-oxadiazole-5-carboxamide] gave a negative logarithm of the IC50 (pIC50) in the assay on HEK-293 cells of 5.22. Besides, the 50% degradation concentration (DC50) at BTK was 0.74 nM.

Take `Cc1cc(-c2ncnc3[nH]c(-c4ccc(N5CCN(CC6CCN(c7ccc(N8CCC(=O)NC8=O)c(C)c7)CC6)CC5)cc4)cc23)ccc1[C@@H](C)NC(=O)c1nc(C(C)(C)C)no1` [Example 44, (R)-3-(tert-butyl)-N-(1-(4-(6-(4-(4-((1-(4-(2,4-dioxotetrahydropyrimidin-1(2H)-yl)-3-methylphenyl)piperidin-4-yl)methyl)piperazin-1-yl)phenyl)-7H-pyrrolo[2,3-d]pyrimidin-4-yl)-2-methylphenyl)ethyl)-12,4-oxadiazole-5-carboxamide]: in the assay with HEK-293 cells, the pIC50 was under 5.00. Moreover, it took 1.2 nM to reach half-maximal degradation at BTK (DC50).
